Consider seven compounds from ChEMBL document CHEMBL1134256, “Anticancer activity of synthetic analogues of the phorboxazoles” (Bioorg Med Chem Lett, 2001).

Each structure is given as a SMILES string.

The test system of test [1] is Candida albicans. The experiment in a line: In vitro growth inhibitory concentration for antifungal activity against Candida albicans. It counts as functional.
For test [2], the system named is Saccharomyces pastorianus. Kind of test: In vitro growth inhibitory concentration for antifungal activity against Saccharomyces carlsbergensis. It is filed as functional.
The test system of test [3] is BT-20. Kind of test: Effect on proliferation of human breast cancer cell line BT-20 by MTT assay method. It counts as functional, cell-based.
For test [4], the system named is U373 MG. The experiment in a line: Effect on proliferation of human brain tumor (glioblastoma) cell line U373 by MTT assay method. It counts as functional, cell-based, U-373MG ATCC. A general note: Tetrazolium dyes change colour on reduction, which living cells bring about.
In test [5] the test system is NALM-6. Kind of test: Effect on proliferation of human B-lineage acute lymphoblastic leukemia cell line NALM-6 by MTT assay method. It is filed as functional, cell-based.
For test [6], the system named is BT-20. Kind of test: In vitro anticlonogenic effect on human breast cancer cell line BT-20 at 10 nM concentration. It is filed as functional.
Test [7] has as its system U373 MG. Kind of test: In vitro anticlonogenic effect on human brain tumor (glioblastoma) cell line U373 at 10 nM concentration. It counts as functional, U-373MG ATCC.
Test [8] concerns U373 MG. The experiment in a line: In vitro anticlonogenic effect on human brain tumor (glioblastoma) cell line U373 at 100 nM concentration. It counts as functional, U-373MG ATCC.
The test system of test [9] is BT-20. The experiment in a line: In vitro anticlonogenic effect on human breast cancer cell line BT-20 at 10 nM concentration,. It counts as functional.
Test [10] relates to BT-20. Kind of test: In vitro anticlonogenic effect on human breast cancer cell line BT-20 at 100 nM concentration. It is filed as functional.
For test [11], the system named is NALM-6. The experiment in a line: In vitro anticlonogenic effect on human B-lineage acute lymphoblastic leukemia cell line NALM-6 at 1 nM concentration. It is filed as functional.
Test [12] relates to NALM-6. Kind of test: In vitro anticlonogenic effect on human B-lineage acute lymphoblastic leukemia cell line NALM-6 at 100 nM concentration. It counts as functional.
For test [13], the system named is NALM-6. Kind of test: In vitro anticlonogenic effect on human B-lineage acute lymphoblastic leukemia cell line NALM-6 at 10 nM concentration. It counts as functional.
Test [14] concerns BT-20. Kind of test: In vitro anticlonogenic effect on human breast cancer cell line BT-20 at 1 nM concentration. It counts as functional.
The subject of test [15] is BT-20. The experiment in a line: In vitro anticlonogenic effect on human breast cancer cell line BT-20 10 nM concentration. It counts as functional.
The subject of test [16] is BT-20. The experiment in a line: In vitro anticlonogenic effect on human breast cancer cell line BT-20 1 nM concentration. It counts as functional.
For test [17], the system named is Candida albicans. The experiment in a line: In vitro growth inhibitory concentration against Candida albicans. It is filed as functional.
Test [18] relates to Saccharomyces pastorianus. The experiment in a line: In vitro growth inhibitory concentration against Saccharomyces carlsbergensis. It counts as functional.
For test [19], the system named is U373 MG. The experiment in a line: In vitro anticlonogenic effect on human brain tumor (glioblastoma) cell line U373 10 nM concentration e. It counts as functional, U-373MG ATCC.
Test [20] deals with BT-20. Kind of test: In vitro anticlonogenic effect on human breast cancer cell line BT-20 100 nM concentration. It is filed as functional.
In test [21] the test system is U373 MG. The experiment in a line: In vitro anticlonogenic effect on human brain tumor (glioblastoma) cell line U373 100 nM concentration. It is filed as functional, U-373MG ATCC.

For the compound `COC(=O)/C=C/C[C@H]1O[C@@H](/C(C)=C/c2coc(C[C@]3(O)C[C@H](OC)C[C@H]([C@H](O)/C=C(C)/C=C/[C@@H](C/C=C/Br)OC)O3)n2)[C@H](C)[C@@H](OC(C)=O)[C@H]1C`, the 50% growth inhibitory concentration (GI50) (in the test with Candida albicans [1]; in test [2]) was 1.6 nM in each case. The half-maximal inhibitory concentration (IC50) in the test with BT-20 [3], in the test with U373 MG [4] and with NALM-6 [5] was over 2000 nM each time.
Take `C=C1C[C@@H]2C[C@@H]3C[C@@H](O)C[C@@H](O3)c3coc(n3)/C=C/C[C@H]3O[C@@H](/C(C)=C/c4coc(C[C@]5(O)C[C@H](OC)C[C@H](CO)O5)n4)[C@H](C)[C@@H](OC(=O)/C=C\C[C@@H](C1)O2)[C@H]3C`: the 50% growth inhibitory concentration (GI50) (in the test with Candida albicans [1]; in [2]) was 1.6 nM in each case. The IC50 with BT-20 [3], with U373 MG [4] and in the test with NALM-6 [5] was over 2000 nM each time.
`C=C1C[C@@H]2C[C@@H]3C[C@@H](O)C[C@@H](O3)c3coc(n3)/C=C/C[C@H]3O[C@@H](/C(C)=C/c4coc(C[C@]5(O)C[C@H](OC)C[C@H]([C@H](O)/C=C(C)/C=C/[C@@H](C/C=C/Br)OC)O5)n4)[C@H](C)[C@@H](OC(=O)/C=C\C[C@@H](C1)O2)[C@H]3C`: the Mean no. colonies was 0 10e4*cells in the test with BT-20 [6]; 378 10e4*cells in the test on U373 MG [7]; 0 10e4*cells in the test with U373 MG [8]; 0 10e4*cells in the test on BT-20 [10]; 270 10e4*cells with NALM-6 [11]; 0 10e4*cells with NALM-6 [12]. Besides, the values for the Mean no. colonies in the test with NALM-6 [13] and with BT-20 [14] were 0 10e4*cells and 1070 10e4*cells, respectively. Besides, the GI50 (in the test with Candida albicans [1]; in [2]) was 1.6 nM each time. The inhibition at 0.1 µM in the test with U373 MG [8], in the test on BT-20 [10] and in the test on NALM-6 [12] was over 99.9% in each case. In addition, the inhibition at 0.01 µM in the test on BT-20 [9] and in the test on NALM-6 [13] was over 99.9% in each case. For the same compound, the IC50 (usually the concentration needed to halve the response being measured) was determined as 3.4 nM in the test with BT-20 [3], 6.7 nM in the test with U373 MG [4] and 1.7 nM with NALM-6 [5].
On to `C#CC[C@H](/C=C/C(C)=C/[C@@H](O)[C@H]1C[C@@H](OC)C[C@@](O)(Cc2nc(/C=C(\C)[C@@H]3O[C@@H]4C/C=C/c5nc(co5)[C@H]5C[C@H](O)C[C@@H](C[C@H]6CC(=C)C[C@H](C/C=C\C(=O)O[C@@H]([C@H]4C)[C@H]3C)O6)O5)co2)O1)OC`, for which the Mean no. colonies is 1062 10e4*cells in the test with BT-20 [15]; 1540 10e4*cells with BT-20 [16]; 586 10e4*cells in the test with U373 MG [19]; 0 10e4*cells in the test with BT-20 [20]; 144 10e4*cells in the test with U373 MG [21]; 2116 10e4*cells with NALM-6 [11]. The Mean no. colonies is 0 10e4*cells in the test with NALM-6 [12] and 293 10e4*cells in the test with NALM-6 [13]. Further, the GI50 (in the test on Candida albicans [17]; in [18]) was 1.6 nM each time. Besides, the figures for the IC50 in the test on BT-20 [3], in the test on U373 MG [4] and in the test with NALM-6 [5] were 12.6 nM, 27.4 nM and 4.8 nM, respectively.
With `C=C1C[C@@H]2C[C@@H]3C[C@@H](O)C[C@@H](O3)c3coc(n3)/C=C/C[C@H]3O[C@@H](/C(C)=C/[C@H](CO)NC(=O)C[C@]4(O)C[C@H](OC)C[C@H]([C@H](O)/C=C(C)/C=C/[C@@H](C/C=C/Br)OC)O4)[C@H](C)[C@@H](OC(=O)/C=C\C[C@@H](C1)O2)[C@H]3C`, the GI50 (in the test on Candida albicans [1]; in [2]) was 1.6 nM throughout. The half-maximal inhibitory concentration (IC50) in the test with BT-20 [3], in the test on U373 MG [4] and in the test on NALM-6 [5] was over 2000 nM each time.
Take `C=C1C[C@@H]2C[C@@H]3C[C@@H](O)C[C@@H](O3)c3coc(n3)/C=C/C[C@H]3O[C@@H](/C(C)=C/c4coc(C[C@]5(OC)C[C@H](OC)C[C@H]([C@H](O)/C=C(C)/C=C/[C@@H](C/C=C/Br)OC)O5)n4)[C@H](C)[C@@H](OC(=O)/C=C\C[C@@H](C1)O2)[C@H]3C`: the Mean no. colonies was 1430 10e4*cells in the test with BT-20 [6]; 578 10e4*cells in the test with U373 MG [7]; 0 10e4*cells in the test on U373 MG [8]; 0 10e4*cells in the test with BT-20 [10]; 1760 10e4*cells in the test with NALM-6 [11]; 0 10e4*cells in the test on NALM-6 [12]. Moreover, the Mean no. colonies in the test with NALM-6 [13] is 422 10e4*cells; in the test on BT-20 [14], 1824 10e4*cells. The 50% growth inhibitory concentration (GI50) (with Candida albicans [1]; in test [2]) was 1.6 nM throughout. Besides, the results for the 50% inhibitory concentration (IC50) with BT-20 [3], in the test with U373 MG [4] and in the test with NALM-6 [5] were 11.3 nM, 29.2 nM and 5.2 nM, respectively.
Regarding `COC(=O)C[C@]1(O)C[C@H](OC)C[C@H]([C@H](O)/C=C(C)/C=C/[C@@H](C/C=C/Br)OC)O1`, the concentration for 50% growth inhibition (GI50) (with Candida albicans [1]; in test [2]) was 1.6 nM in each case. Further, the 50% inhibitory concentration (IC50) with BT-20 [3], with U373 MG [4] and in the test on NALM-6 [5] was over 2000 nM each time.
